Laboratory results reported in US9920069B2, “Compounds for treatment of fluoroquinolone-resistant bacteria” (The Board of Trustees of the University of Illinois, priority 2014, dated 2018).
≈ marks a conversion by molar mass, not a printed value. Like-named read-outs stand apart in the source and are kept apart here.

Tests used:
[1] = physchem; conditions: organic solvent or mixture, thermodynamic from solid
[2] = test system: S. aureus 29213 (WT GyrA and WT ParC); assay: microbe, parasite or virus in culture; assay type: cell-based; conditions: Staphylococcus aureus; WT GyrA and WT ParC; read-out: MIC against S. aureus 29213
Experimental: (§1) Susceptibility testing was performed in triplicate using the microdilution broth method as outlined by the Clinical and Laboratory Standards Institute CLSI^52. MH broth was used.

[3] = physchem; conditions: for Solubility in pH 7.4 PBS: three replicates ± SEM
Experimental: Enough PBS was added to make a 1 mg/mL solution. Compounds were then assessed by LC-MS and compared to a calibration curve to determine the solubility. […] Data shown is from three independent replicates±SEM. […] Between DMSO additions, the vial was vortexed and sonicated.
The compound was vortexed for ˜30 seconds before being placed into a bath sonicator (Cole Parmer, ultrasonic cleaner) for 1 h. […] The tubes were vortexed again for 30 s before being centrifuged at maximum speed (13,000×g) for 10 minutes. The supernatant was then filtered through a 0.22 μm syringe filter (Millipore Millex MP). […] Three independent replicates of each compound were performed. A calibration curve for each compound was generated from 1-400 μM by dissolving the compound in DMSO and making dilutions of the stock in DMSO. […] The concentration of the samples was calculated based on the calibration curves.

[4] = Pharmacokinetic assessment, serum by HPLC; assay type: in vivo, C57BL/6 mice; conditions: mouse serum
Experimental: FIG. 13. Pharmacokinetic analysis of DNM, DNM-2, and DNM-3. C57/BL6 mice were treated with 50 mg kg^−1 DNM, DNM-2, or DNM-3 via oral gavage. After the indicated time points (15, 30, 60, 120, 240, and 480 min), mice were sacrificed and the serum concentrations of DNM, DNM-2, and DNM-3 was determined by HPLC.
The animal studies (PK, in vivo toxicity and in vivo efficacy) were carried out in strict accordance with the recommendations in the Guide for the Care and Use of Laboratory Animals of the National Institutes of Health. […] In these studies, 10-12 week old female C57BL/6 mice purchased from Charles River were used. DNM, DNM-2, and DNM-3 were formulated as slurries at 8.3 mg mL^−1 in 25% Cremophor RH40/water (v/v). Before beginning the pharmacokinetic assessment, mice were first tested for their ability to tolerate the DNM, DNM-2, and DNM-3 at 50 mg kg^−1 (p.o.). […] At specified time points, mice were sacrificed and blood was collected, centrifuged, and the serum was frozen at −80° C. until analysis. The proteins in a 50 μL aliquot of serum were precipitated by the addition of 50 μL of acetonitrile and the sample was centrifuged to remove the proteins. Serum concentrations of DNM, DNM-2, and DNM-3 were determined by HPLC. PK parameters were determined using GraphPad Prism Version 5.00 for Windows.

[5] = test system: MRSA clinical isolate SAU.669; assay: MIC, microdilution broth; assay type: cell-based, S. aureus; conditions: Staphylococcus aureus
Experimental: as §1

[6] = test system: MRSA clinical isolate SAU.446; assay: MIC, microdilution broth; assay type: cell-based, S. aureus; conditions: Staphylococcus aureus
Experimental: as §1

[7] = test system: MRSA clinical isolate SAU.3025; assay: MIC, microdilution broth; assay type: cell-based, S. aureus; conditions: Staphylococcus aureus
Experimental: as §1

[8] = test system: MRSA clinical isolate SAU.555; assay: MIC, microdilution broth; assay type: cell-based, S. aureus; conditions: Staphylococcus aureus
Experimental: as §1

[9] = test system: MRSA clinical isolate SAU.419; assay: MIC, microdilution broth; assay type: cell-based, S. aureus; conditions: Staphylococcus aureus, MRSA, read-out: MIC
Experimental: as §1

[10] = test system: MRSA clinical isolate SAU.2996; assay: MIC, microdilution broth; assay type: cell-based, S. aureus; conditions: Staphylococcus aureus, MRSA, read-out: MIC
Experimental: as §1

[11] = test system: MRSA clinical isolate SAU.3021; assay: MIC, microdilution broth; assay type: cell-based, S. aureus; conditions: Staphylococcus aureus, MRSA, read-out: MIC
Experimental: as §1

[12] = test system: MRSA clinical isolate SAU.494; assay: microbe, parasite or virus in culture; assay type: cell-based, S. aureus; conditions: Staphylococcus aureus
Experimental: as §1

[13] = test system: MRSA clinical isolate SAU.3024; assay: MIC, microdilution broth; assay type: cell-based, S. aureus; conditions: Staphylococcus aureus
Experimental: as §1

[14] = test system: MRSA clinical isolate SAU.1118; assay: MIC, microdilution broth; assay type: cell-based, S. aureus; conditions: Staphylococcus aureus
Experimental: as §1

[15] = test system: MRSA clinical isolate SAU.495; assay: microbe, parasite or virus in culture; assay type: cell-based, S. aureus; conditions: Staphylococcus aureus
Experimental: as §1

[16] = test system: MRSA clinical isolate SAU.710; assay: microbe, parasite or virus in culture; assay type: cell-based, S. aureus; conditions: Staphylococcus aureus
Experimental: as §1

[17] = test system: MRSA clinical isolate SAU.491; assay: microbe, parasite or virus in culture; assay type: cell-based, S. aureus; conditions: Staphylococcus aureus
Experimental: as §1

[18] = test system: MRSA clinical isolate SAU.709; assay: microbe, parasite or virus in culture; assay type: cell-based, S. aureus; conditions: Staphylococcus aureus
Experimental: as §1

[19] = test system: MRSA clinical isolate SAU.492; assay: microbe, parasite or virus in culture; assay type: cell-based, S. aureus; conditions: Staphylococcus aureus
Experimental: as §1

[20] = test system: MRSA clinical isolate SAU.489; assay: microbe, parasite or virus in culture; assay type: cell-based, S. aureus; conditions: Staphylococcus aureus
Experimental: as §1

[21] = test system: MRSA clinical isolate SAU.496; assay: microbe, parasite or virus in culture; assay type: cell-based, S. aureus; conditions: Staphylococcus aureus
Experimental: as §1

[22] = test system: MRSA clinical isolate SAU.708; assay: microbe, parasite or virus in culture; assay type: cell-based, S. aureus; conditions: Staphylococcus aureus
Experimental: as §1

[23] = test system: MRSA clinical isolate SAU.493; assay: microbe, parasite or virus in culture; assay type: cell-based, S. aureus; conditions: Staphylococcus aureus
Experimental: as §1

[24] = target: T1, human topoisomerase II (Homo sapiens, UniProt P11388); assay: Human topoisomerase decatenation assay; assay type: biochemical; conditions: lowest inhibiting / highest without significant inhibition
T1 construct: purchased Inspiralis
T1 sequence (P11388 whole entry): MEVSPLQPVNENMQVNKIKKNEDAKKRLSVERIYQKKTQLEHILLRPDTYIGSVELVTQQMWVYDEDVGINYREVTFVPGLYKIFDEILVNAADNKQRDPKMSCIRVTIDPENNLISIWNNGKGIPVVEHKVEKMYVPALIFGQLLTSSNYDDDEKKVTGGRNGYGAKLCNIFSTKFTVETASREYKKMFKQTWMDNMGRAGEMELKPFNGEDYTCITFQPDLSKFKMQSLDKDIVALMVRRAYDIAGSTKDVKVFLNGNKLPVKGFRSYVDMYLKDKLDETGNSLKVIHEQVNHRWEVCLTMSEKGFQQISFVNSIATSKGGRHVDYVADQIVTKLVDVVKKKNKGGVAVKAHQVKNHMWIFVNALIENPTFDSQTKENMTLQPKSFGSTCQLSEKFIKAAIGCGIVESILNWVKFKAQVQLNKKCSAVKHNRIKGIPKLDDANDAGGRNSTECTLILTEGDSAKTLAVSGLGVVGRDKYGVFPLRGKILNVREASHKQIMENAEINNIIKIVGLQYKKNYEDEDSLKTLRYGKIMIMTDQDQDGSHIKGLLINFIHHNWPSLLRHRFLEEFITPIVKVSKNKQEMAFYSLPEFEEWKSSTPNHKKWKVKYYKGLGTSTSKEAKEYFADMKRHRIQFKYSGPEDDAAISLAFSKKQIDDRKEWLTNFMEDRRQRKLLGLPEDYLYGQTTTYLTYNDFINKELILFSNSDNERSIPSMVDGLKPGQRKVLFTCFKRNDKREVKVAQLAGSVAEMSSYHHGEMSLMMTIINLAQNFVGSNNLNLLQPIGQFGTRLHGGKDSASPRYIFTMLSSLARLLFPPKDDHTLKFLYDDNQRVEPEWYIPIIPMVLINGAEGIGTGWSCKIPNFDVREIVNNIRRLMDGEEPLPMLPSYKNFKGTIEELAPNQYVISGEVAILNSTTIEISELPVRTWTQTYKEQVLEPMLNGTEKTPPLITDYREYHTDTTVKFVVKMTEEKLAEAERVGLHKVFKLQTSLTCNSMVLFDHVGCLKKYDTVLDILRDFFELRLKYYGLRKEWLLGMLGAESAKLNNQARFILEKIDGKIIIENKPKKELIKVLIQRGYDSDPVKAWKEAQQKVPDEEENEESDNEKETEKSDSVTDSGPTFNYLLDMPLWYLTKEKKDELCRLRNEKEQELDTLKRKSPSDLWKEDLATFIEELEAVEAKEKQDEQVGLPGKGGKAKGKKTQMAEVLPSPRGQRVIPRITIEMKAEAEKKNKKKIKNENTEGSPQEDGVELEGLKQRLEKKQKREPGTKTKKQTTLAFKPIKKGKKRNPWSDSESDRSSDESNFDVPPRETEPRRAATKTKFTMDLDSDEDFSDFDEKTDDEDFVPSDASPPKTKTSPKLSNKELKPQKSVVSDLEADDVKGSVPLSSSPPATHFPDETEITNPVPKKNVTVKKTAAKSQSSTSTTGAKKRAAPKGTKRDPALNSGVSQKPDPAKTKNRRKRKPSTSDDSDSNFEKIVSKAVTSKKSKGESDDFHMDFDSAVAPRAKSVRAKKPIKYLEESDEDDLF
Experimental: The decatenation assay was performed with the Human Topo II Decatenation Assay Kit (Inspiralis) according to the manufacturer's instructions with minor modifications. First, a master mix was made containing 2 μL 10× assay buffer (500 mM Tris.HCl, pH 7.5, 1250 mM NaCl, 100 mM MgCl2, 50 mM DTT, 1000 μg/mL albumin), 0.67 μL 30 mM ATP, 1.34 μL 0.1 ng/μL kDNA, and 14.3 μL of nuclease free water per sample is made. DMSO or 30× compound is added to a 0.5 mL Eppendorf tube (0.67 μL per tube). The master mix is then added to each tube (18.3 μL per tube). Finally, 1 U of human topoisomerase (1 μL of 1 U/μL stock) is added to each tube for a final volume of 20 μL. The tubes are then incubated at 37° C. for 30 min. Reactions are stopped by the addition of 20 μL of 24:1 chloroform:isoamyl alcohol and 20 μL of stop dye (40% sucrose, 1 mM EDTA, 100 mM TrisHCl pH 7.5, 0.5 μg/mL bromophenol blue). Samples were run on 1% agarose gels containing 0.5 μg/mL ethidium bromide for 1 h at 110V or until the dye front was approximately halfway down the gel. Gels were imaged on a Molecular Imager Gel Doc XR+ (Biorad).

[25] = subcutaneously, orally, or by IP injection; cited from earlier work
[26] = test system: K. pneuomoniae, S. aureus, or M. tuberculosis; conditions: mice infected with various bacteria; cited from earlier work

For `Cc1cc(=O)n2c3c(c4c(cc13)c(C)cc(=O)n4CC(C)(C)C)OC2` [Compound 12], the solubility [1] was 38.7 mM (≈ 13100 µg/mL) and the MIC [2] was 32 µg/mL (≈ 94.6 µM).

In the case of `CCc1cc(=O)n(C)c2c3c4c(cc12)c(CC)cc(=O)n4CO3` [Compound 13], the “Solubility in pH 7.4 PBS” value [3] is reported as 48 μM, the solubility [1] is reported as 5.2 mM (≈ 1610 µg/mL) and the MIC [2] is reported as > 32 µg/mL.

For `CCCc1cc(=O)n(C)c2c3c4c(cc12)c(CCC)cc(=O)n4CO3` [Compound 14], the solubility at 1 h ([3]; pH 7.4, aqueous buffer, thermodynamic from solid) was < 0.001 mM, the solubility [1] was 18.3 mM (≈ 6190 µg/mL) and the MIC [2] was > 32 µg/mL.

In the case of `CCCCn1c(=O)cc(CCC)c2cc3c(CCC)cc(=O)n4c3c(c21)OC4` [Compound 15], the solubility [1] is reported as 4.2 mM (≈ 1600 µg/mL) and the MIC [2] is reported as > 32 µg/mL.

For `CCc1cc(=O)n2c3c(c4c(cc13)c(C)cc(=O)n4C)OC2` [DNM-3], the “Solubility in pH 7.4 PBS” value [3] was 27 μM, the solubility [1] was 1.3 mM (≈ 385 µg/mL) and the AUC ([4]; 50 mg kg^−1 oral dose) was 4000 ng·h/mL. The “Cmax / peak serum concentration” value ([4]; 50 mg kg^−1 oral dose) was 1260 ng/mL, the Cmax ([4]; 50 mg kg^−1 oral dose, read-out: Cmax / peak serum concentration) was 4.3 µM and the AUC ([4]; 50 mg kg^−1 oral gavage) was 4000 ng·h/mL. It also gave a Cmax ([4]; 50 mg kg^−1 oral gavage) of 1260 ng/mL, a Tmax ([4]; 50 mg kg^−1 oral gavage) of 1.1 h and a t1/2 ([4]; 50 mg kg^−1 oral gavage) of 1.2 h. It also gave an MIC [2] of 8 µg/mL (≈ 27 µM).

With `CO[C@@H]1[C@@H](OC(N)=O)[C@@H](O)[C@H](Oc2ccc3c(O)c(NC(=O)c4ccc(O)c(CC=C(C)C)c4)c(=O)oc3c2C)OC1(C)C` [Novo, Novobiocin] the MIC [5] was 0.5 µg/mL (≈ 0.816 µM), the MIC [6] was 0.5 µg/mL (≈ 0.816 µM) and the MIC [7] was 0.25 µg/mL (≈ 0.408 µM). For the same compound, the MIC [8] was 0.25 µg/mL (≈ 0.408 µM), the MIC [9] was 0.25 µg/mL (≈ 0.408 µM) and the MIC [10] was 0.5 µg/mL (≈ 0.816 µM). For the same compound, the MIC [11] was 0.25 µg/mL (≈ 0.408 µM) and the MIC ([12]; read-out: MIC) was 0.125 µg/mL (≈ 0.204 µM).

Work on `CN[C@H](CC(C)C)C(=O)N[C@H]1C(=O)N[C@@H](CC(N)=O)C(=O)N[C@H]2C(=O)N[C@H]3C(=O)N[C@H](C(=O)N[C@H](C(=O)O)c4cc(O)cc(O)c4-c4cc3ccc4O)[C@H](O)c3ccc(c(Cl)c3)Oc3cc2cc(c3O[C@@H]2O[C@H](CO)[C@@H](O)[C@H](O)[C@H]2O[C@H]2C[C@](C)(N)[C@H](O)[C@H](C)O2)Oc2ccc(cc2Cl)[C@H]1O` [VANC, vancomycin, reference compound] yielded an MIC [13] of 2 µg/mL (≈ 1.38 µM), an MIC [10] of 1 µg/mL (≈ 0.69 µM) and an MIC [14] of 2 µg/mL (≈ 1.38 µM). For the same compound, the MIC [11] was 1 µg/mL (≈ 0.69 µM), the MIC [15] was 2 µg/mL (≈ 1.38 µM) and the MIC [16] was 2 µg/mL (≈ 1.38 µM). The MIC [17] was 2 µg/mL (≈ 1.38 µM), the MIC [18] was 1 µg/mL (≈ 0.69 µM) and the MIC [19] was 1 µg/mL (≈ 0.69 µM). The MIC [20] was 2 µg/mL (≈ 1.38 µM), the MIC [21] was 1 µg/mL (≈ 0.69 µM) and the MIC [22] was 2 µg/mL (≈ 1.38 µM). For the same compound, the MIC [23] was 1 µg/mL (≈ 0.69 µM), the MIC [12] was 1 µg/mL (≈ 0.69 µM) and the MIC [2] was 1 µg/mL (≈ 0.69 µM).

In the case of `COc1cccc2c1C(=O)c1c(O)c3c(c(O)c1C2=O)C[C@@](O)(C(=O)CO)C[C@@H]3O[C@H]1C[C@H](N)[C@H](O)[C@H](C)O1` [doxorubicin, reference compound], the “concentration inhibiting human topoisomerase II” value [24] is reported as 3 µM.

In the case of `Cc1cc(=O)n2c3c(c4c(cc13)c(CO)cc(=O)n4C)OC2` [nybomycin], the tolerability in mice [25] is listed as “well tolerated” and the “activity in infected mice” value [26] is listed as “no activity”.
